Consider two substances from US6017883A, “Composition and methods for the inhibition of phagocytes” (Research Corporation Technologies, Inc., priority 1998, dated 2000).

Where no end group is shown, it is not given here.

The test system of data set [1] is PMN. Description: PMN viability by LDH release. Particulars: concentrations that inhibited chemotaxis and oxidant production. The protocol: PMN viability after exposure to NIP (seq id no:1) or control peptide for varying amounts of time was assessed by measuring LDH release using a commercially available kit (Sigma).
For data set [2], the system named is PMN. Particulars: pertussis toxin pretreatment of indo-loaded PMN.
The test system of data set [3] is PMN. Description: fMLP-induced PMN calcium transients. Type of data set: cell-based, human. Particulars: pertussis toxin pretreatment of indo-loaded PMN.

With “REGSYFFGDNA [NIP, Arg-Glu-Gly-Ser-Tyr-Phe-Phe-Gly-Asp-Asn-Ala]”, the “cellular viability as determined by LDH release” value in the data set on PMN [1] is “did not significantly alter cellular viability”.

In the case of pertussis toxin, the “ionomycin-induced rise in cytosolic calcium” value with PMN [2] was “no effect”. Also, in the data set with PMN [3], the “rise in cytosolic calcium concentration induced by 1 μM fMLP” value was “Attenuation”.
